Data: patent publication US8952222B2, “Herbicide resistant sunflower plants derived from RW-B cultivar” (Anglo Netherlands Grain B.V., priority 2008, dated 2015)
Values joined by “and” are separate entries in the source; they are usually repeats but may differ in a detail not shown here. Equal values may be shown once. Marks after values point to notes of the source that are not given here.

What was measured:
Assay in all cases: Whole plant dose response to metsulfuron
Assay type in all cases: in vivo
sunflower line SuBL = details: line SuBL (P197L), 14 DAT; for Dry weight (as a % of the untreated plants): above ground biomass; for Phytotoxicity Index: scale 0-9
Protocol: (§1) Seeds were sown in Petri dishes and, after germination, plantlets were transplanted to pots of 10 cm of diameter in a potting media consisting of equal parts of vermiculite, soil and sand. Plants were grown in a greenhouse under natural light conditions supplemented with 400 W sodium halide lamps to provide a 16 hr daylight. Day/night temperatures were 25 and 20° C., respectively. […] Experiment was arranged as a randomized block design with a full factorial (sunflower line x treatment) arrangement of treatments and 10 replications.
(§2) On the day of herbicide application ten plants of each genotype were cut at the cotyledonal node and dried at 60° C. for 48 hrs for zero-time dried weight determination.
(§3) […] Above ground biomass data from each line were converted to biomass accumulation after application by subtracting the appropriate average zero-time biomass from each sample. Dry biomass data were converted to percentages of the untreated control plants within each line to allow direct comparisons between groups. […] Plants without any symptoms were recorded as “0”, increasing levels of stunting and chlorosis with respect to the untreated control plants were recorded as “1” to “4”, increasing levels of leaf abnormalities and leaf necrosis were recorded from “5” to “8”, and dead plants with total necrosis of the apex were recorded as “9”.

sunflower line B770imi = details: line B770IMI (A205V), 14 DAT; for Dry weight (as a % of the untreated plants): above ground biomass; for Phytotoxicity Index: scale 0-9
Protocol: as §1, §2, §3

sunflower line RW-B = details: line RW-B (W574L), 14 DAT; for Dry weight (as a % of the untreated plants): above ground biomass; for Phytotoxicity Index: scale 0-9
Protocol: as §1, §2, §3

sunflower line B770 = details: 14 DAT; for Dry weight (as a % of the untreated plants): above ground biomass, line Suscp; for Phytotoxicity Index: line B770 (WT-Susceptible), scale 0-9

COc1nc(C)nc(NC(=O)NS(=O)(=O)c2ccccc2C(=O)O)n1 [metsulfuron]
Dry weight (as a % of the untreated plants) (sunflower line SuBL; metsulfuron 0.5x = 2.5 g ai/ha): 83.3% and 83.3^b %
Dry weight (as a % of the untreated plants) (sunflower line SuBL; metsulfuron 1x = 5 g ai/ha): 72.4^b %
Dry weight (as a % of the untreated plants) (sunflower line SuBL; metsulfuron 2x = 10 g ai/ha): 52.2^b %
Dry weight (as a % of the untreated plants) (sunflower line SuBL; metsulfuron 3x = 15 g ai/ha): 35.7^b %
Dry weight (as a % of the untreated plants) (sunflower line SuBL; metsulfuron 4x = 20 g ai/ha): 30.3% and 30.3^b %
Phytotoxicity Index (sunflower line SuBL; metsulfuron 2x = 10 g ai/ha): 4.3^c
Phytotoxicity Index (sunflower line SuBL; metsulfuron 3x = 15 g ai/ha): 7.2^b
Dry weight (as a % of the untreated plants) (sunflower line B770imi; metsulfuron 0.5x = 2.5 g ai/ha): 42^c %
Dry weight (as a % of the untreated plants) (sunflower line B770imi; metsulfuron 1x = 5 g ai/ha): 30.1^c %
Dry weight (as a % of the untreated plants) (sunflower line B770imi; metsulfuron 2x = 10 g ai/ha): 30.4^c %
Dry weight (as a % of the untreated plants) (sunflower line B770imi; metsulfuron 3x = 15 g ai/ha): 30^c %
Dry weight (as a % of the untreated plants) (sunflower line B770imi; metsulfuron 4x = 20 g ai/ha): 30.2^b %
Phytotoxicity Index (sunflower line B770imi; metsulfuron 0.5x = 2.5 g ai/ha): 3.3^b
Phytotoxicity Index (sunflower line B770imi; metsulfuron 1x = 5 g ai/ha): 5.2^b
Phytotoxicity Index (sunflower line B770imi; metsulfuron 3x = 15 g ai/ha): 9^a
Phytotoxicity Index (sunflower line B770imi; metsulfuron 4x = 20 g ai/ha): 9^a
Dry weight (as a % of the untreated plants) (sunflower line RW-B; metsulfuron 2x = 10 g ai/ha): 73.9^a %
Dry weight (as a % of the untreated plants) (sunflower line RW-B; metsulfuron 3x = 15 g ai/ha): 60.7^a %
Dry weight (as a % of the untreated plants) (sunflower line RW-B; metsulfuron 4x = 20 g ai/ha): 38.1^a %
Phytotoxicity Index (sunflower line RW-B; metsulfuron 0.5x = 2.5 g ai/ha): 0^c
Phytotoxicity Index (sunflower line RW-B; metsulfuron 1x = 5 g ai/ha): 0.6^d
Phytotoxicity Index (sunflower line RW-B; metsulfuron 2x = 10 g ai/ha): 1.1^d
Phytotoxicity Index (sunflower line RW-B; metsulfuron 3x = 15 g ai/ha): 2.8^c
Dry weight (as a % of the untreated plants) (sunflower line B770; metsulfuron 0.5x = 2.5 g ai/ha): 23.7^d %
Dry weight (as a % of the untreated plants) (sunflower line B770; metsulfuron 1x = 5 g ai/ha): 20^d %
Dry weight (as a % of the untreated plants) (sunflower line B770; metsulfuron 2x = 10 g ai/ha): 19.4^d %
Dry weight (as a % of the untreated plants) (sunflower line B770; metsulfuron 3x = 15 g ai/ha): 19.2^d %
Dry weight (as a % of the untreated plants) (sunflower line B770; metsulfuron 4x = 20 g ai/ha): 19.4^c %
Phytotoxicity Index (sunflower line B770; metsulfuron 0.5x = 2.5 g ai/ha): 9^a
Phytotoxicity Index (sunflower line B770; metsulfuron 1x = 5 g ai/ha): 9^a
Phytotoxicity Index (sunflower line B770; metsulfuron 2x = 10 g ai/ha): 9^a
Phytotoxicity Index (sunflower line B770; metsulfuron 3x = 15 g ai/ha): 9^a
Phytotoxicity Index (sunflower line B770; metsulfuron 4x = 20 g ai/ha): 9^a
